US20210343368A1, “Method for Engineering Synthetic Cis-Regulatory DNA” (Max-Delbrück-Centrum für Molekulare Medizin in der …, priority 2018, published 2021)

Experiments:
Format in all cases: cell-based, human
[1] = tested on: MES-hGICs-MGT #1low and PN-hGICs-MGT #1low cells; assay: Phenotypic screening of sLCR response to selected factors, FACS; details: 48 hours after stimulation
Procedure: NBE-propagated hGICs were stimulated with selected factors (cytokines, growth factors, compounds) and FACS analyzed 48 hours after stimulation (FIG. 13b). […] (FIG. 13b-c and 17). […] Indeed, TNFα was previously reported as a prominent MES-GBM signaling pathway and inducer of a PN-to-MES transition.

RELA KO MES-hGICs = assay: FACS quantification of MGT #1 in RELA KO MES-hGICs; details: polyclonal and monoclonal RELA KO cells
Procedure: FACS analysis: Analysis was performed with FlowJo_V10.
Canonical NFkB activation can occur downstream TNFα signaling as well as by non-canonical genotoxic stress.

[2] = tested on: MES-hGICs-MGT #1low and PN-hGICs-MGT #1low cells; assay: Immunoblotting of signaling pathway activation; details: both cell types
Procedure: Immunoblot: Cell pellets were lysed in RIPA buffer (20 mM Tris-HCl pH7.5, 150 mM NaCl, 1 mM EDTA, 1 mM EGTA, 1% NP-40) supplemented with a 1× Protease inhibitor cocktail (Roche), 10 mM NaPPi, 10 mM NaF, and 1 mM Sodium orthovanadate. The lysates were sonicated if necessary, and electrophoresis was performed using NuPAGE Bis-Tris precast gels (Life Technologies) in NuPAGE MOPS SDS Running Buffer (50 mM MOPS, 50 mM Tris Base, 0.1% SDS, 1 mM EDTA). Protein was transferred onto Nitrocellulose membranes in transfer buffer (25 mM Tris-HCl pH 7.5, 192 mM Glycine, 20% Methanol) at 120 mA for 1 h. Protein transfer was assessed through staining with Ponceau Red for 5 min, following two washes with TBS-T. Blocking of membranes was done for 1 h at room temperature with 5% BSA in PBS. Dilutions of primary antibodies were prepared in PBS+5% BSA and membranes were incubated over night at 4° C. Following three washes for 5 min with TBS-T, dilutions of appropriate HRP-coupled secondary antibodies were prepared in PBS+5% BSA and membranes were incubated for 45 min at room temperature. After washing three times for 5 min with TBS-T, ECL detection reagent (Sigma; RPN2209) was applied and membranes were exposed to ECL Hyperfilms (Sgima; GE28-9068-37) to detect chemoluminescent signals. […]

Substance: TNFα
- sLCR (MGT #1-2) response normalized to naive hGICs [1]: MES-GBM regulators
- ability to induce MES-GBM signaling (RELA KO MES-hGICs): markedly impaired
- phosphorylation of signaling proteins [2]: induced phosphorylation of NFkB-p65, STAT3 and p38-MAPK
